Experiments:
[1] = Dispersion properties: visual transparency of press-molded sheet; format: physicochemical; design: key: .circleincircle.: Good; .largecircle.: Slightly good; Δ: Slightly opaque; X: Opaque; settings: pellets press-molded at 250° C., sheet of 1 mm thickness
Description: The resultant pellets were press-molded at 250° C. to obtain a sheet having a thickness of 1 mm, and transparency of this sheet was visually evaluated. The results are shown in Table 1 as "dispersion properties".
The better the transparency, the better the dispersion properties in the polymer become.
In Table 1, dispersion properties are indicated according to the following criteria.

[2] = Hydrolysis resistance: same gel build-up test with test compound stored in a thermo-hygrostat; format: physicochemical; settings: test compound allowed to stand in thermo-hygrostat (40° C., 80%) for 7 days, then same test as processing stability
Description: Using a test compound which was allowed to stand in a thermo-hygrostat (40° C., 80%) for 7 days, the same test was conducted and the hydrolytic stability of the compound was evaluated. The results are shown in Table 1 as "hydrolysis resistance".
The processing stability of the hydrolyzed compound is deteriorated. Therefore, the better the processing stability after treatment, the better the hydrolysis resistance becomes.

[3] = Heat stability test of linear low-density polyethylene: processing stability (gel build-up time on kneading); settings: 0.1 parts test compound per 100 parts LLDPE + 0.1 parts hydrotalcite; pellets extruded at 250° C., kneaded under nitrogen at 240° C., 100 rpm, laboplasto mill; time to maximum torque
Description: Heat stability test of linear low-density polyethylene
Using a 30 mm .phi. mono axial extruder, the above formulation was extruded into pellets at 250° C. The resultant pellets were kneaded under a nitrogen atmosphere at 240° C., 100 rpm, using a laboplasto mill, and the time required for a torque value due to crosslinking to reach a maximum value (gel build-up time, minute) was measured. The results are shown in Table 1 as "processing stability".
The longer the gel build-up time, the more crosslinking on kneading is inhibited and the better the processing stability becomes.

In the case of `Cc1cc(Cc2cc(C)cc(C(C)(C)C)c2OP2Oc3c(cc(C)cc3C(C)(C)C)Cc3cc(C)cc(C(C)(C)C)c3O2)c(O)c(C(C)(C)C)c1` [Compound P-4, 2-[2-(4,8-di-t-butyl-2,10-dimethyl-12H-dibenzo[d,g][1,3,2]dioxaphosphosin-6-yl)oxy-3-t-butyl-5-methylbenzyl]-6-t-butyl-4-methylphenol], the “Dispersion properties (transparency of sheet, visually evaluated)” value (“Dispersion properties” below) [1] is reported as “.largecircle”, the “Hydrolysis resistance (gel build-up time after treatment of the test compound)” value (shortened to “Hydrolysis resistance”) [2] is reported as 15 min and the “Processing stability (gel build-up time)” value [3] is reported as 15 min.

In the case of `Cc1cc2c(c(C(C)(C)C)c1)OP(OCCOC(=O)CCc1cc(C)c(O)c(C(C)(C)C)c1)Oc1c(cc(C)cc1C(C)(C)C)C2` [Compound P-3, 2-[3-(3-t-butyl-4-hydroxy-5-methyphenyl)propionyloxy]ethyl 2,2'-methylenebis(6-t-butyl-4-methylphenyl)phosphite], the “Dispersion properties” value [1] is reported as “.largecircle”, the “Hydrolysis resistance” value [2] is reported as 16 min and the “Processing stability (gel build-up time)” value [3] is reported as 16 min.

With `CC(C)(C)c1ccc(OP(Oc2ccc(C(C)(C)C)cc2C(C)(C)C)Oc2ccc(C(C)(C)C)cc2C(C)(C)C)c(C(C)(C)C)c1` [Compound P-2, tris(2,4-di-t-butylphenyl)phosphite] the “Dispersion properties” value [1] was “X”, the “Hydrolysis resistance” value [2] was 4 min and the “Processing stability (gel build-up time)” value [3] was 7 min.

For `Cc1cc(CCC(=O)OCCOp2oc3c(C(C)(C)C)cc(C(C)(C)C)cc3c3cc(C(C)(C)C)cc(C(C)(C)C)c3o2)cc(C(C)(C)C)c1O` [KA-1, 3-(3-t-butyl-4-hydroxy-5-methylphenyl)propionic acid 2-[(2,4,8,10-tetra-t-butyldibenzo[d,f][1,3,2]dioxaphosphepin-6-yl)oxy]ethyl], the “Dispersion properties” value [1] was “.circleincircle”, the “Hydrolysis resistance” value [2] was 21 min and the “Processing stability (gel build-up time)” value [3] was 21 min.

In the case of `CC(C)(C)c1ccc(OP2OCC3(CO2)COP(Oc2ccc(C(C)(C)C)cc2C(C)(C)C)OC3)c(C(C)(C)C)c1` (stereo not drawn) [Compound P-1, bis(2,4-di-t-butylphenyl)pentaerythritol diphosphite], the “Dispersion properties” value [1] is reported as “X”, the “Hydrolysis resistance” value [2] is reported as 7 min and the “Processing stability (gel build-up time)” value [3] is reported as 7 min.
